Data on 20 molecules can be found in patent US10344019B2 (priority 2010, dated 2019).

pEC50: −log10 of the molar value. Read-outs that look alike come from different tables or passages of the source.

Common to all, as to experiment: microbe, parasite or virus in culture
Holding throughout (type): cell-based

Test [1] has as its system HCV 1a RLuc cells (dicistronic genotype 1a H77 replicon, RLuc reporter). Particulars: read-out: 1a. The method in brief: (§1)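 Replicon cells stably carrying the listed RLuc-encoding dicistronic replicons were seeded and treated with DMSO serial dilutions of compound (10 mM stocks) diluted into culture medium. After 72 h, cells were lysed and Renilla luciferase activity measured. EC50 was derived by non-linear regression.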

In test [2] the test system is HCV 4a Rluc cells (NS5A chimeric genotype 1b Con1 replicon with genotype 4a NS5A gene). The conditions noted are these: Hepatitis C virus, read-out: 4a. The method in brief:
as §1

Test [3] deals with HCV 1b RLuc cells (dicistronic genotype 1b Con1 replicon, RLuc reporter). Particulars: Hepatitis C virus, read-out: 1b (nM). The method in brief:
as §1

The subject of test [4] is HCV 3a RLuc cells (NS5A chimeric genotype 1b Con1 replicon with consensus genotype 3a NS5A gene). The conditions noted are these: Hepatitis C virus. The method in brief:
as §1

Test [5] has as its system HCV 2a JFH-1 Rluc cells (dicistronic genotype 2a JFH-1 replicon, RLuc reporter). The conditions noted are these: Hepatitis C virus, genotype 2a JFH-1 replicon, read-out: 2a JFH. The method in brief:
as §1
Background: Replicon systems follow genome replication, usually without infectious particles.

Where [6] appears, read: Hepatitis C virus, genotype 1a H77 replicon, RLuc reporter.
Where [7] appears, read: read-out: 3a, genotype 3a NS5A chimeric 1b Con1 replicon.
Setting [8] is: Hepatitis C virus, genotype 1a replicon.
Where [9] appears, read: read-out: 3a, genotype 3a replicon.
[10] abbreviates: Hepatitis C virus, 72 h, Table 2, genotype 1a H77 replicon, 72 hours.
The mark [11] stands for this setting: read-out: 3a, Table 2, genotype 3a NS5A chimeric replicon.

In the case of `COC(=O)N[C@H](C(=O)N1CCC[C@H]1c1ncc(-c2ccc3cc(-c4ccc(-c5cnc([C@@H]6CCCN6C(=O)[C@@H](NC(=O)OC)[C@H](C)OC)[nH]5)cc4)ccc3c2)[nH]1)C(C)C` [Example 241], the pEC50 in test [1] (setting [6]) was 9.00 to 12.00; in test [2] it was 9.00 to 12.00; in test [4] (setting [7]) it was 8.30 to 9.00; in test [5] (RLuc reporter), 7.36 to 9.00. For the same molecule, the EC50 in test [3] stood at 0.011 nM.
On to `COC(=O)N[C@H](C(=O)N1CCC[C@H]1c1ncc(-c2cc3c4c(c2)OCc2cc(-c5cnc([C@@H]6CCCN6C(=O)[C@@H](NC(=O)OC)[C@@H](C)OC)[nH]5)cc(c2-4)OC3)[nH]1)C(C)C` [Example 313], for which the pEC50 in test [1] (setting [8]), in test [2], in test [4] (setting [9]) and in test [5] was 9.00 to 12.00 throughout. Further, in test [3], the EC50 worked out at 0.079 nM.
`COC(=O)N[C@H](C(=O)N1[C@@H]2CC[C@@H](C2)[C@H]1c1nc2ccc3cc(C#Cc4ccc(-c5cnc([C@@H]6CCCN6C(=O)[C@H](NC(=O)OC)c6ccccc6)[nH]5)cc4)ccc3c2[nH]1)C1CCOCC1` [Example 283]: the pEC50 in test [1] (setting [6]), in test [2], in test [4] (setting [7]) and in test [5] (RLuc reporter) was 9.00 to 12.00 throughout. For the same molecule, in test [3], the EC50 amounted to 0.007 nM.
For the molecule `COC(=O)N[C@H](C(=O)N1CCC[C@H]1c1nc2ccc(-c3ccc4c(c3)C(F)(F)c3cc(-c5c[nH]c([C@@H]6CCCN6C(=O)[C@H](NC(=O)OC)c6ccccc6)n5)ccc3-4)cc2[nH]1)C1CCOCC1` [Example 218], the pEC50 in test [1] (setting [6]), in test [2], in test [4] (setting [7]) and in test [5] (RLuc reporter) was 9.00 to 12.00 throughout. Also, the EC50 in test [3] was 0.01 nM.
Take `COC(=O)N[C@H](C(=O)N1[C@@H]2CC[C@@H](C2)[C@H]1c1ncc(-c2ccc(-c3ccc4c(ccc5nc([C@@H]6CCCN6C(=O)[C@@H](NC(=O)OC)C6CCOCC6)[nH]c54)c3)cc2F)[nH]1)C(C)C` [Example 302]: the pEC50 in test [1] (setting [8]), in test [2], in test [4] (setting [9]) and in test [5] was 9.00 to 12.00 each time. Moreover, the EC50 in test [3] amounted to 0.021 nM.
Consider `COC(=O)N[C@H](C(=O)N1CCC[C@H]1c1ncc(-c2ccc3cc(-c4ccc(-c5cnc([C@@H]6[C@H]7CC[C@H](C7)N6C(=O)[C@H](NC(=O)OC)c6ccccc6)[nH]5)cc4)ccc3c2)[nH]1)C1CCOCC1` [Example 49], for which the pEC50 is 9.00 to 12.00 in test [1] (setting [10]); 9.00 to 12.00 in test [2]; 9.00 to 12.00 in test [4] (setting [11]); 9.00 to 12.00 in test [5] (72 h, Table 2, 72 hours). Further, the EC50 in test [3] (72 h) is 0.014 nM.
With `COC(=O)N[C@H](C(=O)N1CCC[C@H]1c1ncc(-c2ccc3cc(-c4ccc(-c5cnc([C@@H]6CCCN6C(=O)[C@@H](NC(=O)OCc6ccccc6)C6CCSCC6)[nH]5)cc4)ccc3c2)[nH]1)C(C)C` [Example 275], the pEC50 in test [1] (genotype 1a H77 replicon, RLuc reporter) was 7.36 to 9.00; in test [2] it was < 8.30; in test [4] (setting [7]), < 8.30; in test [5] (RLuc reporter) it was < 7.36. Moreover, in test [3], the EC50 was determined as 2.15 nM.
With `COC(=O)N[C@H](C(=O)N1CCC[C@H]1c1ncc(-c2ccc3c(c2)CCc2cc(-c4ccc5nc([C@@H]6[C@H]7CC[C@H](C7)N6C(=O)[C@H](NC(=O)OC)c6ccccc6)[nH]c5c4)ccc2-3)[nH]1)C1CCOCC1` [Example 78], the pEC50 is 9.00 to 12.00 in test [1] (setting [10]); 9.00 to 12.00 in test [2]; 9.00 to 12.00 in test [4] (setting [11]); 9.00 to 12.00 in test [5] (72 h, Table 2, 72 hours). Further, the EC50 in test [3] (72 h) was 0.013 nM.
For the molecule `COC(=O)N[C@H](C(=O)N1[C@@H]2CC[C@@H](C2)[C@H]1c1nc2ccc(-c3ccc4c(c3)C(F)(F)c3cc(-c5cnc([C@@H]6CCCN6C(=O)[C@H](NC(=O)OC)c6ccccc6)[nH]5)ccc3-4)cc2[nH]1)C(C)C` [Example 41], the pEC50 in test [1] (setting [10]) was 9.00 to 12.00; in test [2], 9.00 to 12.00; in test [4] (setting [11]), 9.00 to 12.00; in test [5] (72 h, Table 2, 72 hours) it was 9.00 to 12.00. Besides, the EC50 in test [3] (72 h) is 0.005 nM.
With `COC(=O)NC(C(=O)N1CC2(CC2)C[C@H]1c1ncc(-c2ccc3c(c2)C(F)(F)c2cc(-c4ccc(-c5cnc([C@@H]6CCCN6C(=O)[C@@H](NC(=O)OC)C6CCOCC6)[nH]5)cc4)ccc2-3)[nH]1)C(C)C` (stereo partly shown) [Example 207], the pEC50 is 9.00 to 12.00 in test [1] (setting [6]), 9.00 to 12.00 in test [2], < 8.30 in test [4] (setting [7]) and 7.36 to 9.00 in test [5] (RLuc reporter). Further, in test [3], the EC50 worked out at 0.017 nM.
On to `COC(=O)N[C@H](C(=O)N1[C@@H]2C[C@@H]2C[C@H]1c1nc2ccc3cc(-c4ccc(-c5cnc([C@@H]6[C@H]7CC[C@H](C7)N6C(=O)[C@H](NC(=O)OC)c6ccccc6)[nH]5)cc4)ccc3c2[nH]1)C(C)C` [Example 337], for which the pEC50 in test [1] (setting [8]), in test [2], in test [4] (setting [9]) and in test [5] was 9.00 to 12.00 each time. Further, in test [3], the EC50 was determined as 0.01 nM.
As for `COC(=O)N[C@H](C(=O)N1CCC[C@H]1c1ncc(-c2ccc(-c3ccc4c(ccc5nc([C@@H]6SCCN6C(=O)[C@@H](NC(=O)OC)C(C)C)[nH]c54)c3)cc2)[nH]1)C(C)C` [Example 333], the pEC50 in test [1] (setting [8]) is 7.36 to 9.00; in test [2], 9.00 to 12.00; in test [4] (setting [9]), 8.30 to 9.00; in test [5], 9.00 to 12.00. The EC50 in test [3] is 0.646 nM.
For the molecule `COC(=O)N[C@H](C(=O)N1CCC[C@H]1c1ncc(-c2ccc3c(c2)cc(C#N)c2cc(-c4cnc([C@@H]5CCCN5C(=O)[C@@H](NC(=O)OC)C(C)C)[nH]4)ccc23)[nH]1)C(C)C` [Example 274], the pEC50 is 7.36 to 9.00 in test [1] (setting [6]), 9.00 to 12.00 in test [2], 8.30 to 9.00 in test [4] (setting [7]) and 7.36 to 9.00 in test [5] (RLuc reporter). Also, in test [3], the EC50 is 0.011 nM.
As to `COC(=O)N[C@H](C(=O)N1CCC[C@H]1c1ncc(-c2ccc3c(c2)CCc2cc(-c4ccc5nc([C@@H]6[C@H]7CC[C@H](C7)N6C(=O)[C@@H](NC(=O)OC)C6CCOCC6)[nH]c5c4)ccc2-3)[nH]1)C1CCOCC1` [Example 77], the pEC50 in test [1] (setting [10]) is 9.00 to 12.00; in test [2] it was 9.00 to 12.00; in test [4] (setting [11]), 9.00 to 12.00; in test [5] (72 h, Table 2, 72 hours), 9.00 to 12.00. In addition, the EC50 in test [3] (72 h) is 0.029 nM.
Take `COC(=O)N[C@H](C(=O)N1CCC[C@H]1c1ncc(-c2ccc3cc(-c4ccc(-c5cnc([C@@H]6CC7(CC7)CN6C(=O)[C@H](NC(=O)OC)c6ccccc6)[nH]5)cc4)ccc3c2)[nH]1)C1CCOCC1` [Example 236]: the pEC50 in test [1] (setting [6]), in test [2], in test [4] (setting [7]) and in test [5] (RLuc reporter) was 9.00 to 12.00 in each case. The EC50 in test [3] is 0.011 nM.
In the case of `COC(=O)N[C@H](C(=O)N1CCC[C@H]1c1ncc(-c2ccc3cc(-c4ccc(-c5cnc([C@@H]6CC7(CC7)CN6C(=O)[C@H](NC(=O)OC)c6ccccc6)[nH]5)cc4)ccc3c2)[nH]1)C(C)C` [Example 235], the pEC50 in test [1] (setting [6]) was 9.00 to 12.00; in test [2] it was 9.00 to 12.00; in test [4] (setting [7]) it was 8.30 to 9.00; in test [5] (RLuc reporter), 9.00 to 12.00. The EC50 in test [3] was determined as 0.004 nM.
Consider `COC(=O)N[C@H](C(=O)N1CCC[C@H]1c1nc2c3ccccc3c3cc(-c4ccc(-c5cnc([C@@H]6CCCN6C(=O)[C@@H](NC(=O)OC)C6CCOCC6)[nH]5)cc4)ccc3c2[nH]1)C(C)C` [Example 300], for which the pEC50 in test [1] (setting [8]) is 7.36 to 9.00; in test [2] it was 9.00 to 12.00; in test [4] (setting [9]), 8.30 to 9.00; in test [5], 9.00 to 12.00. In test [3], the EC50 was determined as 0.023 nM.
On to `COC(=O)N[C@H](C(=O)N1CCC[C@H]1c1nc2ccc3cc(C#Cc4ccc(-c5cnc([C@@H]6CCCN6C(=O)[C@H](NC(=O)OC)c6ccccc6)[nH]5)cc4)ccc3c2[nH]1)C1CCOCC1` [Example 208], for which the pEC50 in test [1] (setting [6]), in test [2], in test [4] (setting [7]) and in test [5] (RLuc reporter) was 9.00 to 12.00 throughout. In addition, the EC50 in test [3] was 0.009 nM.
On to `COC(=O)N[C@H](C(=O)N1CCC[C@H]1c1nc(-c2ccc3cc(-c4ccc5c(ccc6nc([C@@H]7CCCN7C(=O)[C@H](NC(=O)OC)c7ccccc7)[nH]c65)c4)sc3c2)c[nH]1)[C@H](C)OC` [Example 257], for which the pEC50 in test [1] (setting [6]), in test [2], in test [4] (setting [7]) and in test [5] (RLuc reporter) was 9.00 to 12.00 throughout. Moreover, the EC50 in test [3] stood at 0.013 nM.
Turning to `COC(=O)N[C@H](C(=O)N1CC2(C[C@@H]1c1nc(-c3ccc4c(c3)C(F)(F)c3cc(-c5ccc6nc([C@@H]7CCCN7C(=O)[C@H](NC(=O)OC)c7ccccc7)[nH]c6c5)ccc3-4)c[nH]1)OCCO2)C(C)C` [Example 46], the pEC50 in test [1] (setting [10]) is 9.00 to 12.00; in test [2], 9.00 to 12.00; in test [4] (setting [11]), 8.30 to 9.00; in test [5] (72 h, Table 2, 72 hours) it was 9.00 to 12.00. Moreover, the EC50 in test [3] (72 h) stood at 0.007 nM.
